These compounds were tested on human foreskin fibroblasts (assay: Cytotoxicity: metabolic activity (WST-1) of quiescent fibroblasts exposed to inhibitor). Conditions: 25 μM compound, 0.5% DMSO, 48 hours, 60% or below = very sick or dead.
Type: cell-based
Experimental: C-proteinase inhibitors were studied in cytotoxicity assays wherein quiescent cells were exposed to C-proteinase inhibitors for a given time and cell viability measured. By examining cellular metabolic activity, cell viability and cell survival were determined.
C-proteinase inhibitors were tested on human foreskin fibroblasts that had been grown to confluence in 96 well microtiter plates in Dulbecco's Modified Eagle Medium (DMEM) containing 10% fetal calf serum. Shortly before adding the inhibitors, the media was removed and 90 μl per microtiter well of fresh serum-free DMEM was added to the cells. The C-proteinase inhibitors were made up as concentrated stocks containing compound at 250 μM in the presence of 5% DMSO as solvent. A concentrated stock of 10 μl was added to each microtiter well to give a final compound concentration of 25 μM in the presence of 0.5% DMSO. The cells were incubated in the presence of the C-proteinase inhibitor for 48 hours, and then cell viability and survival were measured as a function of metabolic activity. To examine cellular metabolic activity, 10 μl of WST-1 reagent (Boehringer Mannheim) was added to each well of a 96 well microtiter plate containing quiescent cells that were already in media. The plate was incubated at 37° C. for 120 minutes and removed. The absorbance at 450 nm-650 nm was recorded. […] Controls included untreated healthy cells, and cells killed with 0.1% saponin.
Cytotoxicity was evaluated as a function of cellular survival. Cellular survival was determined by measuring the metabolic activity of the quiescent cells after exposure to the C-proteinase inhibitors. To determine the metabolic activity of the cells, the color change of a trazolium dye over time was examined according to Mossmann, […], Immunol. Methods 65:66; Carmichael, 1987, Cancer Res 47:936, incorporated herein by reference. Healthy cells cleaved the dye producing a colored product that can be quantitated. […] Dead cells had no metabolic activity and no effect on the dye was shown.
The amount of dye cleaved by cells that had been incubated with inhibitor, expressed as a percentage relative to untreated cells, is shown in TABLE 2. Cells that register at 60% or below are considered either very sick or dead. Control cells that were intentionally killed give a value of close to 20%.

Going from N/C(=N\O)c1ccc(S(=O)(=O)N(CCC(=O)NO)CCc2cccs2)cc1 [Compound 1409] to N/C(=N\O)c1cccc(S(=O)(=O)N(CCC(=O)NO)CCc2cccs2)c1 [Compound 1457], the “Percent Metabolic Activity of Fibroblasts Exposed To Various C-Proteinase Inhibitors Relative to Untreated Fibroblasts” value falls from 108.8% to 107.4%.

Compared with COc1ccc(S(=O)(=O)N(CCC(=O)NO)Cc2ccc3c(c2)OCO3)cc1OC [Compound 1410], N/C(=N\O)c1cccc(S(=O)(=O)N(CCC(=O)NO)Cc2ccc3c(c2)OCO3)c1 [Compound 1458] is higher in “Percent Metabolic Activity of Fibroblasts Exposed To Various C-Proteinase Inhibitors Relative to Untreated Fibroblasts” value: 108.6% for the first, 111.0% for the second.

First: CC(=O)Nc1ccc(S(=O)(=O)N(CCC(=O)NO)CCc2cccs2)cc1 [Compound 1411]
Second: CS(=O)(=O)c1ccc(S(=O)(=O)N(CCC(=O)NO)CCc2cccs2)cc1 [Compound 1463]
The “Percent Metabolic Activity of Fibroblasts Exposed To Various C-Proteinase Inhibitors Relative to Untreated Fibroblasts” value of the first is lower: 108.2% for the first, 110.0% for the second.

First: O=C(CCN(CCc1cccs1)S(=O)(=O)Cc1ccccc1)NO [Compound 1414]
Second: O=C(CCN(CCc1cccs1)S(=O)(=O)c1cccs1)NO [Compound 1425]
The “Percent Metabolic Activity of Fibroblasts Exposed To Various C-Proteinase Inhibitors Relative to Untreated Fibroblasts” value of the first is higher: 112.6% for the first, 109.5% for the second.

First: CCCCOc1ccc(S(=O)(=O)N(CCC(=O)NO)CCc2cccs2)cc1 [Compound 1416]
Second: O=C(CCN(CCc1cccs1)S(=O)(=O)c1ccc(Br)s1)NO [Compound 1417]
The “Percent Metabolic Activity of Fibroblasts Exposed To Various C-Proteinase Inhibitors Relative to Untreated Fibroblasts” value of the first is lower: 92.8% for the first, 120.3% for the second.

First: O=C(CCN(CCc1cccs1)S(=O)(=O)c1ccc(S(=O)(=O)c2ccccc2)s1)NO [Compound 1419]
Second: COc1ccc(CCN(CCC(=O)NO)S(=O)(=O)c2cccc(/C(N)=N/O)c2)cc1 [Compound 1456]
The “Percent Metabolic Activity of Fibroblasts Exposed To Various C-Proteinase Inhibitors Relative to Untreated Fibroblasts” value of the first is lower: 104.7% for the first, 106.8% for the second.

CS(=O)(=O)c1ccc(S(=O)(=O)N(CCC(=O)NO)Cc2ccc3c(c2)OCO3)cc1 [Compound 1464] was tested, and the “Percent Metabolic Activity of Fibroblasts Exposed To Various C-Proteinase Inhibitors Relative to Untreated Fibroblasts” value was 111.0%.

From US6506936B1, “N-substituted arylsulfonylamino hydroxamic acids useful as inhibitors of c-proteinase and for treating or preventing disorders related to unregulated collagen production” (FibroGen, Inc., priority 1999, dated 2003)
